# Like-named read-outs stand apart in the source and are kept apart here.
# Assays:
# [1] = tested on: human gastric cancer cells (AGS Cells); test: MTS assay, inhibition of proliferation of human gastric cancer cells (AGS Cells); assay type: cell-based; conditions: Homo sapiens, 48 hours
# Description: To examine the effect of inhibiting the proliferation of the compounds indicated in the examples of the present invention on human gastric cancer cells (AGS Cells), MTS Assay experiments were in vitro performed. AGS cells were cultured in a 5% CO2 incubator at 37° C. by using RPMI 1640 medium containing 1% penicillin-streptomycin and 10% fetal bovine serum. The cells in culture were separated with using 0.25% Trypsin-0.02% EDTA every 3 to 4 days and subcultured.
# For the experiment, the cultured cells were treated with 0.25% Trypsin-0.02% EDTA solution, the suspended cells were centrifuged at 1,200 rpm for 5 minutes, the supernatant was discarded, a culture medium was added thereto, and a cell suspension was made with the culture medium. Using a hemocytometer, 10,000 cells per well were dispensed into 96-well plates and cultured. After 24 hours, when the cells attached to the plate, the culture medium was discarded, and the cells were treated with new culture media prepared by concentration (test concentrations: 500 μm, 250 μm, 125 μm, 63 μm, 31 μm, 16 μm, 8 μm, 4 μm, and 2 μm) and cultured in a CO2 incubator for 48 hours. After treating with an MTS solution, the cells were incubated in a CO2 incubator for 1 hour, and the absorbance was measured at 490 nm by using a microplate reader device. The cell proliferation inhibition rate was expressed as IC50, which is 50% inhibition of cell proliferation, using GraphPad Prism 5.
# In Table 2 below, the IC50 value is indicated as “+++” for 0 to 50 μM, “++” for 51 to 100 μM, and “+” for 101 to 400 μM.
# [2] = tested on: Human gastric cancer cells (MKN-45 Cell); test: Anticancer efficacy in xenograft mouse model; assay type: in vivo, nude mice; conditions: 10 mg/kg oral once/day, Day 12, MKN-45 xenograft
# Description: This study was conducted to evaluate the anticancer efficacy of the compound of Example 15 of the present invention in a xenograft tumor model. Human gastric cancer cells (MKN-45 Cell) were purchased from the Korea Cell Line Bank and cultured in a 5% CO2 incubator at 37° C. by using an RPMI 1640 medium containing 1% penicillin-streptomycin and 10% fetal bovine serum. The cultured cells were separated using 0.25% Trypsin-0.02% EDTA every 3 to 4 days and then subcultured. Cells. Four-week-old female nude mice were purchased, and after a one-week acclimatization period in a laboratory environment, the nude mice that reached 5 weeks of age were used in the experiment. MKN-45 cells were made into a single cell suspension by using Matrigel and DPBS, and implanted subcutaneously into nude mice at a concentration of 1×10^7 cells per mouse. One week after MKN-45 cell transplantation, experimental animals with tumors with a specific size were selected and divided into 3 groups with 10 animals per group. The compound of Example 7 was administered orally at administration concentrations of 10 mg/kg and 30 mg/kg, and the experiment was conducted for 12 days.
# The size of the tumor was calculated using the formula ‘short axis×short axis×long axis/2,’ and the results of the changes in tumor size change are illustrated in FIG. 2.
# [3] = tested on: pH of gastric juice; test: Pharmacodynamic profile (pH of gastric juice) in beagles after histamine; assay type: in vivo, beagle dogs; conditions: beagle
# Description: A total of 18 male beagle dogs (Marshall Beagle, Beijing) with an average weight of 9 to 11 kg were obtained, acclimatized, and distributed into a total of 6 groups, 3 dogs per test group. During the entire experiment, all beagle dogs were supplied with standardized solid food and water. The breeding room was kept under controlled and monitored conditions, while maintaining a temperature of 18° C. to 26° C., a humidity of 40% to 70%, and a light-dark cycle of 12 hours-12 hours.
# The test group consisted of beagle dogs that were orally administered the vehicle as the vehicle group, beagle dogs that were orally administered control drug 1 (vonoprazan) as the comparison group, and administration group was beagle dogs orally administered with Example 7.
# To measure the neutralizing power of gastric acid for drug efficacy evaluation, each dose of the compound was administered to each group. Then, histamine dihydrochloride at 0.03 mg/kg was administered subcutaneously 1, 3, 6, 24, and 48 hours after compound administration. The pH of the gastric juice was measured 0, 2.5, 4.5, 7.5, 25.5, and 49.5 hours after compound administration.
smiles,measurement,setting,value
"[2H]C([2H])([2H])NCc1cc(-c2ccccc2F)n(S(=O)(=O)c2ccc(F)cc2)c1 [Example 7, N-((5-(2-fluorophenyl)-1-((4-fluorophenyl)sulfonyl)-1H-pyrrol-3-yl)methyl)methan-d3-amine]",IC50,[1]; read-out: Proliferation inhibitory effect of gastric cancer cells (IC50),35.3 µM
same,IC50,"[1]; read-out: Proliferation inhibitory effect of gastric cancer cells (IC50, μM), class symbol",< 50 µM
same,tumor size reduced as compared to the Control group (vehicle),[2],42%
same,Average pH of gastric juice,"[3]; oral 0.1 mg/kg, 0 h",6.8
same,Average pH of gastric juice,"[3]; oral 0.1 mg/kg, 2.5 h",3.3
same,Average pH of gastric juice,"[3]; oral 0.1 mg/kg, 4.5 h",6.5
same,Average pH of gastric juice,"[3]; oral 0.1 mg/kg, 7.5 h",6.0
same,Average pH of gastric juice,"[3]; oral 0.1 mg/kg, 25.5 h",2.7
same,Average pH of gastric juice,"[3]; oral 0.1 mg/kg, 49.5 h",2.4
same,Average pH of gastric juice,"[3]; oral 0.3 mg/kg, 0 h",7.2
same,Average pH of gastric juice,"[3]; oral 0.3 mg/kg, 2.5 h",6.7
same,Average pH of gastric juice,"[3]; oral 0.3 mg/kg, 4.5 h",7.0
same,Average pH of gastric juice,"[3]; oral 0.3 mg/kg, 7.5 h",6.5
same,Average pH of gastric juice,"[3]; oral 0.3 mg/kg, 25.5 h",2.3
same,Average pH of gastric juice,"[3]; oral 0.3 mg/kg, 49.5 h",2.8
same,Average pH of gastric juice,"[3]; oral 1 mg/kg, 0 h",5.7
same,Average pH of gastric juice,"[3]; oral 1 mg/kg, 2.5 h",7.2
same,Average pH of gastric juice,"[3]; oral 1 mg/kg, 4.5 h",6.7
same,Average pH of gastric juice,"[3]; oral 1 mg/kg, 7.5 h",6.2
same,Average pH of gastric juice,"[3]; oral 1 mg/kg, 25.5 h",3.0
same,Average pH of gastric juice,"[3]; oral 1 mg/kg, 49.5 h",2.3
same,Average pH of gastric juice,"[3]; oral 3 mg/kg, 0 h",6.0
same,Average pH of gastric juice,"[3]; oral 3 mg/kg, 2.5 h",7.3
same,Average pH of gastric juice,"[3]; oral 3 mg/kg, 4.5 h",7.0
same,Average pH of gastric juice,"[3]; oral 3 mg/kg, 7.5 h",6.3
same,Average pH of gastric juice,"[3]; oral 3 mg/kg, 25.5 h",6.2
same,Average pH of gastric juice,"[3]; oral 3 mg/kg, 49.5 h",3.0
